In patent US8557816B2, “Aurora kinase modulators and method of use” (Amgen Inc., priority 2007, dated 2013) one finds IC50 data, which are given here for 25 compounds.

The target of one experiment is T1, AuroraA-TPX2 (Homo sapiens, UniProt O14965).
T1 construct: 20 μL of AuroraA-TPX2 KD GST for a final volume of about 41 μL; GST
T1 sequence (O14965 133-383 limits assumed): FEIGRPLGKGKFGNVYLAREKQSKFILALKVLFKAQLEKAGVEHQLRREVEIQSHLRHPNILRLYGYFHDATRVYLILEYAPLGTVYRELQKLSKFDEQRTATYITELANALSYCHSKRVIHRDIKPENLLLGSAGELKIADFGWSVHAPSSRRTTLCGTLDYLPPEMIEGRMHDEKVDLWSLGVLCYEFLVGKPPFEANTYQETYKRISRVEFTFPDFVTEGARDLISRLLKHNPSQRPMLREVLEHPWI
T1 sequence (Q9ULW0 1-43 partner limits assumed): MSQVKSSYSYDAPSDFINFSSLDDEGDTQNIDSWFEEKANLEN
The experiment is described as follows: AuroraA-TPX2 Homogeneous Time Resolved Fluorescent (HTRF) kinase assay. Particulars: average; read-out: AurA_IC50_IP (uM Avg). The format is biochemical. As to the method: AuroraA-TPX2-Homogeneous Time Resolved Fluorescent (HTRF) Kinase Assay:
The Aurora-A HTRF assay begins with Aurora-A in the presence of ATP phosphorylating the biotinylated peptide PLK. The reaction incubates for about 120 min. Detection reagents are added to quench the reaction. These agents stop the reaction by diluting out the enzyme and chelating the metals due to the presence of EDTA. After addition, the assay is incubated overnight to allow the detection reagents to equilibrate.
The AuroraA HTRF assay comprises 1 μL of compound in 100% DMSO, 20 μL of ATP and biotinylated PLK, and 20 μL of AuroraA-TPX2 KD GST for a final volume of about 41 μL. The final concentration of PLK is about 1 μM. […] Buffer conditions are as follows: 60 mM HEPES pH 7.5, 25 mM NaCl, 10 mM MgCl, 2 mM DTT, 0.05% BSA.
The assay is quenched and stopped with 160 μL of detection reagent. Detection reagents are as follows: Buffer made of 50 mM Tris, pH 7.5, 100 mM NaCl, 3 mM EDTA, 0.05% BSA, 0.1% Tween20. Added to this buffer prior to reading is Steptavidin allophycocyanin (SA-APC) at a final conc in the assay of 0.0005 mg/mL, and europilated anti-phosphoPLK Ab (Eu-anti-PLK) at a final conc of 0.02 nM.
The assay plate is read in either a Discovery or a RubyStar. The eu-anti-PLK is excited at 320 nm and emits at 615 nm to excite the SA-APC which in turn emits at 655 nm.
Background: Time-resolved FRET reads energy transfer from a long-lived donor to a nearby acceptor.

Another experiment addresses T2, AuroraB (Homo sapiens, UniProt Q96GD4).
T2 construct: 20 μL of AuroraB FL H is for a final volume of 41 μL; His
The experiment is described as follows: AuroraB Homogeneous Time Resolved Fluorescent (HTRF) kinase assay. Format: biochemical. As to the method:
AuroraB-Homogeneous Time Resolved Fluorescent (HTRF) Kinase Assay:
The AuroraB HTRF assay begins with AuroraB in the presence of ATP phosphorylating the biotinylated peptide Histone H3. The reaction incubates for about 90 min. the reaction is quenched by addition of detection reagents, which stop the reaction by diluting out the enzyme and chelating the metals due to the presence of EDTA. After addition, the assay is incubated for about 60 min to allow detection reagents to equilibrate.
The AuroraB HTRF assay comprises 1 μL of compound in 100% DMSO, 20 μL of ATP and biotinylated Histone H3, and 20 μL of AuroraB FL H is for a final volume of 41 μL. The final concentration of Histone H3 is 0.1 μM. […] Buffer conditions are as follows: 50 mM HEPES pH 7.5, 5 mM NaCl, 0.5 mM MgCl, 0.5 mM MnCl, 2 mM DTT, 0.05% BSA.
The assay is quenched and stopped with 160 μL of detection reagent. Detection reagents are as follows: Buffer made of 50 mM Tris, pH 7.5, 100 mM NaCl, 3 mM EDTA, 0.05% BSA, 0.1% Tween20. Added to this buffer prior to reading is Steptavidin allophycocyanin (SA-APC) at a final conc in the assay of 0.001 mg/mL, and europilated anti-phosphoHistoneH3 Ab (Eu-anti-HisH3) at a final conc of 0.064 nM.
The assay plate is read in either a Discovery or a RubyStar. The eu-anti-HisH3 is excited at 320 nm and emits at 615 nm to excite the SA-APC which in turn emits at 655 nm.

Setting [1] is: average, read-out: AurB_IC50_IP (uM Avg).

Molecules are shown by their SMILES. Where two headings read alike, the source gives them in different places. Some results are limits rather than exact numbers.

T2 sequence (Q96GD4 whole entry): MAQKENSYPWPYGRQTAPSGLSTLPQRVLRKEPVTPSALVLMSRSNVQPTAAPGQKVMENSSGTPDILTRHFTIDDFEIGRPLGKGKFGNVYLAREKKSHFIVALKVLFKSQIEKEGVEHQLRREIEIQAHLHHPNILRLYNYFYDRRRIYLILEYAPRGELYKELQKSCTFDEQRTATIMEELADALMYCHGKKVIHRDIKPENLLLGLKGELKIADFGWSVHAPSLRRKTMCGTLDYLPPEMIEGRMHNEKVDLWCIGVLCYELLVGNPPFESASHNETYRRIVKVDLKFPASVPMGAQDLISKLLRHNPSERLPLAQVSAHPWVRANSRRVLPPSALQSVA

In the case of `CCc1cc(N2CCCCC2)nnc1Nc1ccc(Oc2ccnc3cc(OC)cnc23)cc1` [compound 321, 4-ethyl-N-(4-((7-(methyloxy)-1,5-naphthyridin-4-yl)oxy)phenyl)-6-(1-piperidinyl)-3-pyridazinamine], the IC50 at AuroraA-TPX2 came out at 0.304 µM; on AuroraB (setting [1]), 0.051 µM. For the compound `COc1ccc2nccc(Oc3ccc(Nc4nnc(-c5cc(C)cs5)c5ccccc45)cc3)c2c1` [compound 269, N-(4-((6-(methyloxy)-4-quinolinyl)oxy)phenyl)-4-(4-methyl-2-thienyl)-1-phthalazinamine], the IC50 was determined as 0.049 µM at AuroraA-TPX2 and 0.006 µM at AuroraB (setting [1]). As for `c1ccc(-c2nnc(Nc3ccc(Oc4ccnc5ccnn45)cc3)c3ccccc23)cc1` [compound 370, 4-phenyl-N-(4-(pyrazolo[1,5-a]pyrimidin-7-yloxy)phenyl)phthalazin-1-amine], the IC50 is 0.505 µM at AuroraA-TPX2 and 0.594 µM at AuroraB (setting [1]). `COc1cc2ncnc(Oc3ccc(Nc4nnc(-c5cc(C)ccn5)c5ccccc45)cc3)c2cc1OC` [compound 123, N-(4-((6,7-bis(methyloxy)-4-quinazolinyl)oxy)phenyl)-4-(4-methyl-2-pyridinyl)-1-phthalazinamine]: the IC50 was found to be 0.132 µM at AuroraA-TPX2 and 0.015 µM on AuroraB (setting [1]).

Take `COc1cc2nccc(Oc3ccc(Nc4nnc(-c5cccc(CO)n5)c5ccccc45)cc3)c2cc1OC` [compound 112, (6-(4-((4-((6,7-bis(methyloxy)-4-quinolinyl)oxy)phenyl)amino)-1-phthalazinyl)-2-pyridinyl)methanol]: the IC50 at AuroraA-TPX2 was 0.015 µM; at AuroraB (setting [1]), 0.003 µM. On to `COc1cc(OC)c2c(Oc3ccc(Nc4nnc(-c5ccc(Cl)cc5)c5ccccc45)cc3)ccnc2c1` [compound 435], for which the IC50 on AuroraA-TPX2 is 0.038 µM; at AuroraB (setting [1]), 0.121 µM.

On to `Clc1ccc(-c2nnc(Nc3ccc(Sc4ccnc5cc(Br)cnc45)cc3)c3ccccc23)cc1` [compound 301, N-(4-((7-bromo-1,5-naphthyridin-4-yl)thio)phenyl)-4-(4-chlorophenyl)-1-phthalazinamine], for which the IC50 was 0.035 µM at AuroraA-TPX2 and 0.063 µM on AuroraB (setting [1]). Turning to `Fc1cc(F)c2c(Sc3ccc(Nc4nnc(-c5ccccc5)c5ccccc45)cc3)ccnc2c1` [compound 295, N-(4-((5,7-difluoro-4-quinolinyl)thio)phenyl)-4-phenyl-1-phthalazinamine], on AuroraB (given as class symbol, read-out: AurB_IC50_IP (class symbol)), the IC50 was less than 0.1 µM. Regarding `COc1cnc2c(Oc3ccc(Nc4nnc(-c5cnc6ccccc6c5)c5ccccc45)cc3)ccnc2c1` [compound 182, N-(4-((7-(methyloxy)-1,5-naphthyridin-4-yl)oxy)phenyl)-4-(3-quinolinyl)-1-phthalazinamine], the IC50 was found to be 0.023 µM on AuroraA-TPX2 and 0.002 µM at AuroraB (setting [1]). As for `Clc1ccc(-c2nnc(Nc3ccc(Sc4ccnc5cc[nH]c45)cc3)c3ccccc23)cc1` [compound 463, 4-(4-chlorophenyl)-N-(4-(1H-pyrrolo[3,2-b]pyridin-7-ylthio)phenyl)-1-phthalazinamine], the values for the IC50 at AuroraA-TPX2 and at AuroraB (setting [1]) were 0.146 µM and 0.008 µM, respectively.

As to `COC1CCN(c2nnc(Nc3ccc(Oc4ccnc5ccoc45)cc3)c3ccccc23)CC1` [compound 478], the IC50 on AuroraA-TPX2 amounted to 2.03 µM; at AuroraB (setting [1]) it was 0.074 µM. In the case of `Clc1ccc(-c2nnc(Nc3ccc(CN4CCOc5ccccc54)cc3)c3ccccc23)cc1` [compound 349, 4-(4-chlorophenyl)-N-(4-((2,3-dihydrobenzo[b][1,4]oxazin-4-yl)methyl)phenyl)phthalazin-1-amine], at AuroraB (setting [1]), the IC50 turned out to be 0.045 µM.

Turning to `Clc1ccc(-c2nnc(Nc3ccc(Oc4cnnc5ccc(Br)cc45)cc3)c3ccccc23)cc1` [compound 369, N-(4-(6-bromocinnolin-4-yloxy)phenyl)-4-(4-chlorophenyl)phthalazin-1-amine], at AuroraB (setting [1]), the IC50 came to 3 µM.

On to `Cc1noc(-c2cc3nccc(Sc4ccc(Nc5nnc(-c6ccccc6)c6ccccc56)cc4)c3s2)n1` [compound 303, N-(4-((2-(3-methyl-1,2,4-oxadiazol-5-yl)thieno[3,2-b]pyridin-7-yl)thio)phenyl)-4-phenyl-1-phthalazinamine], for which the IC50 on AuroraB (setting [1]) was determined as 0.07 µM.

`Cn1cncc1-c1cc2nccc(Oc3ccc(Nc4nnc(-c5ccc(Cl)cc5)c5ccccc45)cn3)c2s1` [compound 267, 4-(4-chlorophenyl)-N-(6-((2-(1-methyl-1H-imidazol-5-yl)thieno[3,2-b]pyridin-7-yl)oxy)-3-pyridinyl)-1-phthalazinamine]: the IC50 on AuroraA-TPX2 was 0.011 µM. Take `Cc1ccc(-c2nnc(Nc3ccc(Oc4ccnc5cc(-c6cncn6C)sc45)cc3)c3ccccc23)nc1` [compound 255, N-(4-((2-(1-methyl-1H-imidazol-5-yl)thieno[3,2-b]pyridin-7-yl)oxy)phenyl)-4-(5-methyl-2-pyridinyl)-1-phthalazinamine]: on AuroraA-TPX2, the IC50 worked out at 0.005 µM. For the compound `Cc1noc(-c2cc3nccc(Sc4ccc(Nc5nnc(-c6ccccc6)c6ccccc56)cc4)c3s2)n1` [compound 318, N-(4-((2-(3-methyl-1,2,4-oxadiazol-5-yl)thieno[3,2-b]pyridin-7-yl)thio)phenyl)-4-phenyl-1-phthalazinamine], the IC50 at AuroraB (setting [1]) is 0.07 µM. For the compound `COc1cnc2c(Oc3ccc(Nc4nnc(-c5cccc(N6CCCCC6)c5)c5ccccc45)cc3)ccnc2c1` [compound 197, N-(4-((7-(methyloxy)-1,5-naphthyridin-4-yl)oxy)phenyl)-4-(3-(1-piperidinyl)phenyl)-1-phthalazinamine], on AuroraA-TPX2, the IC50 was 0.034 µM. On to `Fc1cc(F)c2c(Sc3ccc(Nc4nnc(-c5ccccc5)c5ccccc45)cc3)ccnc2c1` [compound 311, N-(4-((5,7-difluoro-4-quinolinyl)thio)phenyl)-4-phenyl-1-phthalazinamine], for which the IC50 on AuroraB (setting [1]) was 0.093 µM. Take `COc1cc2nncc(Oc3ccc(Nc4nnc(-c5ccc(Cl)cc5)c5ccccc45)cc3)c2cc1OC` [compound 282, N-(4-((6,7-bis(methyloxy)-4-cinnolinyl)oxy)phenyl)-4-(4-chlorophenyl)-1-phthalazinamine]: the IC50 on AuroraB (setting [1]) is 0.189 µM. Turning to `CNC(=O)c1cc(Sc2ccc(Nc3nnc(-c4ccc(Cl)cc4)c4ccccc34)cc2)ccn1` [compound 360, 4-(4-(4-(4-chlorophenyl)phthalazin-1-ylamino)phenylthio)-N-methylpicolinamide], the IC50 at AuroraB (setting [1]) amounted to 0.345 µM. Regarding `COc1ccc2c(Oc3ccc(Nc4nnc(-c5ccc(C(F)(F)F)cc5)c5ccccc45)cc3)c(F)cnc2c1` [Example 39, N-(4-(3-fluoro-7-methoxyquinolin-4-yloxy)phenyl)-4-(4-(trifluoromethyl)phenyl) phthalazin-1-amine], the IC50 at AuroraB (setting [1]) was determined as 1 µM. In the case of `COc1cnc2c(Oc3ccc(Nc4nnc(-c5nccn5C)c5ccccc45)cc3)ccnc2c1` [Example 30, N-(4-(7-methoxy-1,5-naphthyridin-4-yloxy)phenyl)-4-(1-methyl-1H-imidazol-2-yl)phthalazin-1-amine], the IC50 at AuroraA-TPX2 is 1.39 µM.

As to `N#Cc1ccc2c(Oc3ccc(Nc4nnc(-c5ccccc5)c5ccccc45)cn3)ccnc2c1` [compound 174, 4-(5-(4-phenylphthalazin-1-ylamino)pyridin-2-yloxy)quinoline-7-carbonitrile], the IC50 on AuroraB (setting [1]) worked out at 5 µM. Consider `Clc1ccc(-c2nnc(Nc3ccc(Sc4ccnc5ccccc45)cc3)c3ccccc23)cc1` [compound 333, 4-(4-chlorophenyl)-N-(4-(quinolin-4-ylthio)phenyl)phthalazin-1-amine], for which the IC50 on AuroraB (setting [1]) is 0.036 µM.
